Test results as given in ChEMBL document CHEMBL1909046, “DrugMatrix in vitro pharmacology data”.

Tests used:
Substance-P receptor = Substance-P receptor (Homo sapiens, UniProt P25103); assay type: cell membranes, Membrane; conditions: cho; also: in other assays of this panel Not Active means under 50% inhibition at 10 µM
[1] = molecular target: T1, Muscarinic acetylcholine receptor M2 (Homo sapiens, UniProt P08172); assay type: cell membranes, CHO-K1, Membrane; conditions: cho-k1; also: in other assays of this panel Not Active means under 50% inhibition at 10 µM
T1 sequence (P08172 whole entry): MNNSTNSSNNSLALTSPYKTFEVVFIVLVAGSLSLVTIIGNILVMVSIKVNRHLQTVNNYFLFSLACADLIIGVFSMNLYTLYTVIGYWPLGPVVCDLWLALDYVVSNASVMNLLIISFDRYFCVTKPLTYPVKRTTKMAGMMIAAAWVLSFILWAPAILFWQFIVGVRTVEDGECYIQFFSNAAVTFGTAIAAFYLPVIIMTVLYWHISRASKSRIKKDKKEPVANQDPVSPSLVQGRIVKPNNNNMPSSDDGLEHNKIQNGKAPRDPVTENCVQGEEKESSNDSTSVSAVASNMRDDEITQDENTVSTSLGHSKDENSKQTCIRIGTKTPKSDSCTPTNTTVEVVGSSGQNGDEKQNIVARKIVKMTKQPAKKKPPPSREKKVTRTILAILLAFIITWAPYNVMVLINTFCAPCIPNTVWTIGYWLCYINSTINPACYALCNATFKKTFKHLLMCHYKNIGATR

[2] = DRUGMATRIX: beta-Lactamase enzyme inhibition (substrate: Nitrocefin); parameters: species or system Bacillus cereus; conditions: Not Active = under 50% inhibition at 10 µM
Cathepsin G = molecular target: T2, Cathepsin G (Homo sapiens, UniProt P08311); experiment: biochemical; assay type: tissue-based, Neutrophil; conditions: neutrophil;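 also: inhibition of Cathepsin G enzyme activity, tested on an AMC-conjugated peptide substrate; in other assays of this panel Not Active means under 50% inhibition at 10 µM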
T2 sequence (P08311 whole entry): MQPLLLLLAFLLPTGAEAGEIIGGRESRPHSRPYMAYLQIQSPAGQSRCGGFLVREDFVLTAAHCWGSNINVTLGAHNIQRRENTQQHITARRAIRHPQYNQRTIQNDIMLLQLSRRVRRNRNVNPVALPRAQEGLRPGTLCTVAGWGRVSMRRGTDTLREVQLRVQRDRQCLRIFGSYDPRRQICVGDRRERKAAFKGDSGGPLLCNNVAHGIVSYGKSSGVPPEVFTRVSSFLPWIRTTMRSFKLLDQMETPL

[3] = DRUGMATRIX: Calcium Channel Type L, Dihydropyridine radioligand binding (ligand: [3H] Nitrendipine); assay type: cell membranes, Rattus norvegicus, Wistar, Cerebral cortex, Membrane; conditions: Not Active = under 50% inhibition at 10 µM
Carbonic anhydrase 2 = Carbonic anhydrase 2 (Homo sapiens, UniProt P00918); experiment: DRUGMATRIX: Carbonic Anhydrase II enzyme inhibition (substrate: 4-Nitrophenyl acetate (4-NPA)); assay type: tissue-based, Erythrocyte; conditions: erythrocyte; Not Active = under 50% inhibition at 10 µM

Substance-P receptor, sequence (P25103 whole entry): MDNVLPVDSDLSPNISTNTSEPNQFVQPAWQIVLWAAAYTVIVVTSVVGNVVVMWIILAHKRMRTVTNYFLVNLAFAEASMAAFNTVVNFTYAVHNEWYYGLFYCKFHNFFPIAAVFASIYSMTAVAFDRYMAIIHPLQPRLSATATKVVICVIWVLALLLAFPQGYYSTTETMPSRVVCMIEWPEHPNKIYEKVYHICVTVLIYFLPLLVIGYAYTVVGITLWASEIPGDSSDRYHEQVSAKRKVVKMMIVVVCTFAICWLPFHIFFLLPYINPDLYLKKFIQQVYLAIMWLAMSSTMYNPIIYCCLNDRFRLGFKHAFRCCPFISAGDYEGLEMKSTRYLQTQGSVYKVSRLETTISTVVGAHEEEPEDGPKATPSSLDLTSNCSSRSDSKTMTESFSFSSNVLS

LEAD(IV) ACETATE
Not Active: IC50 (Substance-P receptor) | Ki (Substance-P receptor) | IC50 [1] | Ki [1] | IC50 [2] | Ki [2] | IC50 (Cathepsin G) | Ki (Cathepsin G) | IC50 [3] | Ki [3] | IC50 (Carbonic anhydrase 2) | Ki (Carbonic anhydrase 2)

CC[C@H](C)C(=O)O[C@H]1CCC=C2C=C[C@H](C)[C@H](CC[C@@H]3C[C@@H](O)CC(=O)O3)[C@H]21 [MEVASTATIN]
Not Active: IC50 (Substance-P receptor) | IC50 [1] | IC50 [2] | Ki [2] | IC50 (Cathepsin G) | IC50 [3] | Ki [3] | IC50 (Carbonic anhydrase 2)

CN1C[C@H](CNC(=O)OCc2ccccc2)C[C@@H]2c3cccc4c3c(cn4C)C[C@H]21 [METERGOLINE]
Not Active: IC50 (Substance-P receptor) | IC50 [1] | IC50 [2] | Ki [2] | IC50 (Cathepsin G) | IC50 [3] | Ki [3] | IC50 (Carbonic anhydrase 2)

Oc1ccc(/C=C/c2cc(O)cc(O)c2)cc1 [RESVERATROL]
Not Active: IC50 (Substance-P receptor) | IC50 [1] | IC50 [2] | Ki [2] | IC50 (Cathepsin G) | IC50 [3] | Ki [3] | IC50 (Carbonic anhydrase 2)

CC1=C(/C=C/C(C)=C/C=C/C(C)=C/C(=O)O)C(C)(C)CCC1 [TRETINOIN]
Not Active: IC50 (Substance-P receptor) | IC50 [1] | IC50 [2] | Ki [2] | IC50 (Cathepsin G) | IC50 [3] | Ki [3] | IC50 (Carbonic anhydrase 2)

CC[C@@]1(O)C(=O)OCc2c1cc1n(c2=O)Cc2cc3c(CN(C)C)c(O)ccc3nc2-1 [TOPOTECAN]
Not Active: IC50 (Substance-P receptor) | IC50 [1] | IC50 [2] | Ki [2] | IC50 (Cathepsin G) | IC50 [3] | Ki [3] | IC50 (Carbonic anhydrase 2)

O=C(OC[C@H]1O[C@@H](OC(=O)c2cc(O)c(O)c(OC(=O)c3cc(O)c(O)c(O)c3)c2)[C@H](OC(=O)c2cc(O)c(O)c(OC(=O)c3cc(O)c(O)c(O)c3)c2)[C@@H](OC(=O)c2cc(O)c(O)c(OC(=O)c3cc(O)c(O)c(O)c3)c2)[C@@H]1OC(=O)c1cc(O)c(O)c(OC(=O)c2cc(O)c(O)c(O)c2)c1)c1cc(O)c(O)c(OC(=O)c2cc(O)c(O)c(O)c2)c1 [TANNIC ACID]
Not Active: IC50 (Substance-P receptor) | IC50 [1] | IC50 [2] | Ki [2] | IC50 (Cathepsin G) | IC50 [3] | Ki [3] | IC50 (Carbonic anhydrase 2)

CC(Cl)(Cl)Cl [TRICHLOROETHANE]
Not Active: IC50 (Substance-P receptor) | IC50 [1] | IC50 [2] | Ki [2] | IC50 (Cathepsin G) | IC50 [3] | Ki [3] | IC50 (Carbonic anhydrase 2)

C=CCc1ccc2c(c1)OCO2 [SAFROLE]
Not Active: IC50 (Substance-P receptor) | IC50 [1] | IC50 [2] | Ki [2] | IC50 (Cathepsin G) | IC50 [3] | Ki [3] | IC50 (Carbonic anhydrase 2)

O=C1CC[C@@]2(O)[C@H]3Cc4ccc(O)c5c4[C@@]2(CCN3CC2CC2)[C@H]1O5 [NALTREXONE]
Not Active: IC50 (Substance-P receptor) | IC50 [1] | IC50 [2] | Ki [2] | IC50 (Cathepsin G) | IC50 [3] | Ki [3] | IC50 (Carbonic anhydrase 2)

CN1C(=O)OC(C)(C)C1=O [TRIMETHADIONE]
Not Active: IC50 (Substance-P receptor) | IC50 [1] | IC50 [2] | Ki [2] | IC50 (Cathepsin G) | IC50 [3] | Ki [3] | IC50 (Carbonic anhydrase 2)

CC(O)C(=O)O (configuration not stated) [LACTIC ACID]
Not Active: IC50 (Substance-P receptor) | IC50 [1] | IC50 [2] | Ki [2] | IC50 (Cathepsin G) | IC50 [3] | Ki [3] | IC50 (Carbonic anhydrase 2)

CS(=O)(=O)c1ccc(C2=C(c3ccccc3)C(=O)OC2)cc1 [ROFECOXIB]
Not Active: IC50 (Substance-P receptor) | IC50 [1] | IC50 [2] | Ki [2] | IC50 (Cathepsin G) | IC50 [3] | Ki [3] | IC50 (Carbonic anhydrase 2)

Cc1nnc(NS(=O)(=O)c2ccc(N)cc2)s1 [SULFAMETHIZOLE]
Not Active: IC50 (Substance-P receptor) | IC50 [1] | IC50 [2] | Ki [2] | IC50 (Cathepsin G) | IC50 [3] | Ki [3] | IC50 (Carbonic anhydrase 2)

CC(=O)O[C@]1(C(C)=O)CC[C@H]2[C@@H]3C[C@H](C)C4=CC(=O)CC[C@]4(C)[C@H]3CC[C@@]21C [MEDROXYPROGESTERONE ACETATE]
Not Active: IC50 (Substance-P receptor) | IC50 [1] | IC50 [2] | Ki [2] | IC50 (Cathepsin G) | IC50 [3] | Ki [3] | IC50 (Carbonic anhydrase 2)

CC1(C)[C@H](C(=O)O)N2C(=O)C[C@H]2S1(=O)=O [SULBACTAM]
Not Active: IC50 (Substance-P receptor) | IC50 [1] | IC50 [2] | Ki [2] | IC50 (Cathepsin G) | IC50 [3] | Ki [3] | IC50 (Carbonic anhydrase 2)

O=C(O)c1cc(/N=N/c2ccc(S(=O)(=O)Nc3ccccn3)cc2)ccc1O [SULFASALAZINE]
Not Active: IC50 (Substance-P receptor) | IC50 [1] | IC50 [2] | Ki [2] | IC50 (Cathepsin G) | IC50 [3] | Ki [3] | IC50 (Carbonic anhydrase 2)

CCN(CC)CCNC(=O)c1cc(Cl)c(N)cc1OC [METOCLOPRAMIDE]
Not Active: IC50 (Substance-P receptor) | IC50 [1] | IC50 [2] | Ki [2] | IC50 (Cathepsin G) | IC50 [3] | Ki [3] | IC50 (Carbonic anhydrase 2)

COC(=O)Nc1nc2ccc(C(=O)c3ccccc3)cc2[nH]1 [MEBENDAZOLE]
Not Active: IC50 (Substance-P receptor) | IC50 [1] | IC50 [2] | Ki [2] | IC50 (Cathepsin G) | IC50 [3] | Ki [3] | IC50 (Carbonic anhydrase 2)

Cc1cccc(C)c1NC(=O)C(C)N (configuration not stated) [TOCAINIDE]
Not Active: IC50 (Substance-P receptor) | IC50 [1] | IC50 [2] | Ki [2] | IC50 (Cathepsin G) | IC50 [3] | Ki [3] | IC50 (Carbonic anhydrase 2)

CC#C[C@]1(O)CC[C@H]2[C@@H]3CCC4=CC(=O)CCC4=C3[C@@H](c3ccc(N(C)C)cc3)C[C@@]21C [MIFEPRISTONE]
Not Active: IC50 (Substance-P receptor) | IC50 [1] | IC50 [2] | Ki [2] | IC50 (Cathepsin G) | IC50 [3] | Ki [3] | IC50 (Carbonic anhydrase 2)
